One test addresses mouse TAAR1 (Mus musculus (Mouse), UniProt Q923Y8). The test can be described thus: Radioligand binding assay on mouse TAAR1. In outline:
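Displacement of the tritiated oxazol-2-ylamine radioligand was measured by filtration and scintillation counting after 1 h incubation at 4 °C. Test concentrations ran 10 pM–10 μM in duplicate, with 10 μM cold ligand giving nonspecific binding. The receptor source was membranes of a stable mouse TAAR1 HEK293 line.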

The target of the next test is rat TAAR1 (Rattus norvegicus (Rat), UniProt Q923Y9). The test is described as follows: Radioligand binding assay on rat TAAR1. In outline:
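Membranes from HEK293 cells stably expressing rat TAAR1, with Kd checked per batch by saturation. Competition with ³H-(S)-4-[(ethyl-phenyl-amino)-methyl]-4,5-dihydro-oxazol-2-ylamine, compounds 10 pM–10 μM in duplicate, 1 hr at 4 °C. Filtration then scintillation counting; nonspecific binding defined with 10 μM unlabeled ligand.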

[1] abbreviates: mouse TAAR1, HEK-293 membranes, first value of cell mouse/rat, read-out: Ki (μM) mouse.
Where [2] appears, read: rat TAAR1, HEK-293 membranes, second value of cell mouse/rat, read-out: Ki (μM) rat.

Where a name gives a salt, the structure may show the parent alone. Read-outs that look alike come from different tables or passages of the source.

mouse TAAR1, sequence (Q923Y8 whole entry): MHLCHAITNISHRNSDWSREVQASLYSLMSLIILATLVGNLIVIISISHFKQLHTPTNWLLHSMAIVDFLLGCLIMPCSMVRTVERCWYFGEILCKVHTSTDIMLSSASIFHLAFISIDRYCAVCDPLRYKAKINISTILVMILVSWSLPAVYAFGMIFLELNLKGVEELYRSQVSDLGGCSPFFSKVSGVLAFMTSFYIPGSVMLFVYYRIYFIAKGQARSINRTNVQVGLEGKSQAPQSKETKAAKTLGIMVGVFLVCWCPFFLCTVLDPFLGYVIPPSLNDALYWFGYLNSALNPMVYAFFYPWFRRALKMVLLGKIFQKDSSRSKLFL
rat TAAR1, sequence (Q923Y9 whole entry): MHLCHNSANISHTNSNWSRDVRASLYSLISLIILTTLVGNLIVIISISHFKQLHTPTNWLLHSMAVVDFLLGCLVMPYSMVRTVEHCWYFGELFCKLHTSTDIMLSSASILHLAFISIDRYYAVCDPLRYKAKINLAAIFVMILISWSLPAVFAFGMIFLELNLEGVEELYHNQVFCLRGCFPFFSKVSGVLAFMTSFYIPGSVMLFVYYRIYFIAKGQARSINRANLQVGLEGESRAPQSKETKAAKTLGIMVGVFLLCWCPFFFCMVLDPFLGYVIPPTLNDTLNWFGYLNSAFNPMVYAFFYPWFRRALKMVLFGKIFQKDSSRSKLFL

Take `O=C(Nc1ccc(CCC2CCNC2)cc1)Nc1ccc(Cl)cn1` (racemic) [Example 114, (RS)-1-(5-Chloro-pyridin-2-yl)-3-[4-(2-pyrrolidin-3-yl-ethyl)-phenyl]-urea hydrochloride]: the Ki came out at 0.0836 µM at mouse TAAR1 (setting [1]) and 0.0074 µM at rat TAAR1 (setting [2]).
For `O=C(Nc1ccc(C2CCNC2)cc1)c1cc(Cl)ccn1` (racemic) [Example 86, (RS)-4-Chloro-pyridine-2-carboxylic acid (4-pyrrolidin-3-yl-phenyl)-amide hydrochloride], in that order: 0.0051 µM and 0.116 µM.
For `O=C(Nc1ccc(CCC2CCCN2)cc1)c1ccc(Cl)cc1` (racemic) [Example 142, (RS)-4-Chloro-N-[4-(2-pyrrolidin-2-yl-ethyl)-phenyl]-benzamide hydrochloride], the Ki on mouse TAAR1 (setting [1]) worked out at 0.0126 µM; at rat TAAR1 (setting [2]) it was 0.0004 µM.
For the compound `O=C(Nc1ccc([C@@H]2CNCCO2)cc1)c1ccc(OCC(F)(F)F)nc1` [Example 268, (R)—N-(4-(Morpholin-2-yl)phenyl)-6-(2,2,2-trifluoroethoxy)nicotinamide hydrochloride], the Ki on mouse TAAR1 (read-out: Ki (μM) mouse) came out at 0.002 µM; on rat TAAR1 (read-out: Ki (μM) rat) it was 0.0024 µM.
Turning to `CC(C(=O)Nc1ccc(C2CCNC2)cc1)c1cccc(C(F)(F)F)c1` (racemic) [Example 61, (RS)—N—((RS)-4-Pyrrolidin-3-yl-phenyl)-2-(3-trifluoromethyl-phenyl)-propionamide], the figures for the Ki at mouse TAAR1 (setting [1]) and at rat TAAR1 (setting [2]) were 0.0172 µM and 0.0033 µM, respectively.
For `CSc1cnc(C(=O)Nc2ccc([C@@H]3CCCNC3)cc2)cn1` [Example 257, (S)-5-(Methylthio)-N-(4-(piperidin-3-yl)phenyl)pyrazine-2-carboxamide], in that order: 0.786 µM and 0.004 µM.
Turning to `O=C(Nc1ccc(C2CCNC2)cc1)Oc1ccc(Cl)cc1` (racemic) [Example 23, (RS)-(4-Pyrrolidin-3-yl-phenyl)-carbamic acid 4-chloro-phenyl ester hydrochloride], the Ki at mouse TAAR1 is 0.0022 µM; on rat TAAR1, 0.0025 µM.
For `O=C(Nc1ccc(C2CCCNC2)cc1)c1cnc(Cl)cn1` (racemic) [Example 160, (RS)-5-Chloro-pyrazine-2-carboxylic acid (4-piperidin-3-yl-phenyl)-amide hydrochloride], the results for the Ki at mouse TAAR1 (setting [1]) and on rat TAAR1 (setting [2]) were 0.0851 µM and 0.0046 µM, respectively.
The corresponding values for `CCCCc1ccc(NC(=O)Nc2ccc(C3CCNC3)cc2)c(C)c1` (racemic) [Example 1, (RS)-1-(4-Butyl-2-methyl-phenyl)-3-(4-pyrrolidin-3-yl-phenyl)-urea; hydrochloride] are 0.0056 µM and 0.0072 µM.
For `O=C(Nc1ccc([C@@H]2CCNC2)cc1)c1ccc(OCC(F)(F)F)nc1` [Example 205, (S)—N-(4-(Pyrrolidin-3-yl)phenyl)-6-(2,2,2-trifluoroethoxy)nicotinamide hydrochloride], in that order: 0.0034 µM and 0.0035 µM.
For `O=C(Nc1ccc(C2CNCCO2)cc1)c1ccn(-c2ccccc2)n1` (racemic) [Example 299, (RS)—N-(4-(Morpholin-2-yl)phenyl)-1-phenyl-1H-pyrazole-3-carboxamide hydrochloride], in that order: 0.0022 µM and 0.0014 µM.
Consider `CSc1ccc(C(=O)Nc2ccc(C3CNCCO3)cc2)cc1` (stereo in doubt) [Example 267, (S)-4-(Methylthio)-N-(4-(morpholin-2-yl)phenyl)benzamide hydrochloride], for which the values for the Ki on mouse TAAR1 (setting [1]) and at rat TAAR1 (read-out: Ki (μM) rat) were 0.0476 µM and 0.0011 µM, respectively.
Consider `Cc1ccc(C(=O)Nc2ccc([C@@H]3CCCNC3)cc2)cc1C` [Example 227, (S)-3,4-Dimethyl-N-(4-(piperidin-3-yl)phenyl)benzamide hydrochloride], for which the values for the Ki at mouse TAAR1 (read-out: Ki (μM) mouse) and at rat TAAR1 (setting [2]) were 0.177 µM and 0.0012 µM, respectively.
Regarding `O=C(Nc1ccc(CCC2CCCCN2)cc1)c1ccc(C(F)(F)F)cc1` (racemic) [Example 175, (RS)—N-(4-(2-(Piperidin-2-yl)ethyl)phenyl)-4-(trifluoromethyl)benzamide hydrochloride], the Ki turned out to be 0.0473 µM on mouse TAAR1 (setting [1]) and 0.0027 µM on rat TAAR1 (setting [2]).
The corresponding values for `CCOc1ccc(C(=O)Nc2ccc(C3CCCNC3)cc2)nc1` (racemic) [Example 179, (RS)-5-Ethoxy-pyridine-2-carboxylic acid (4-piperidin-3-yl-phenyl)-amide; hydrochloride] are 0.0008 µM and 0.0022 µM.
With `CCOc1ccc(C(=O)Nc2ccc([C@H]3CNCCO3)cc2)cc1` [Example 276, (S)-4-Ethoxy-N-(4-(morpholin-2-yl)phenyl)benzamide hydrochloride], the results for the Ki on mouse TAAR1 (setting [1]) and at rat TAAR1 (read-out: Ki (μM) rat) were 0.0558 µM and 0.0008 µM, respectively.
On to `CN(C(=O)Oc1ccccc1)c1ccc(C2CCNC2)cc1` (racemic) [Example 22, (RS)-Methyl-(4-pyrrolidin-3-yl-phenyl)-carbamic acid phenyl ester], for which the Ki was 0.526 µM on mouse TAAR1 and 2.37 µM on rat TAAR1.
On to `CSc1ccc(C(=O)Nc2ccc([C@@H]3CCCNC3)cc2)cc1` [Example 236, (S)-4-(Methylthio)-N-(4-(piperidin-3-yl)phenyl)benzamide hydrochloride], for which the Ki at mouse TAAR1 (setting [1]) was determined as 0.214 µM; at rat TAAR1 (setting [2]), 0.0014 µM.
For `Cc1cc(C(=O)Nc2ccc([C@@H]3CNCCO3)cc2)cc(Cl)n1` [Example 285, (R)-2-Chloro-6-methyl-N-(4-(morpholin-2-yl)phenyl)isonicotinamide hydrochloride], the figures for the Ki at mouse TAAR1 (read-out: Ki (μM) mouse) and on rat TAAR1 (setting [2]) were 0.0082 µM and 0.005 µM, respectively.
Consider `O=C(Nc1ccc(CCC2CCCN2)cc1)c1cnc(Cl)cn1` (racemic) [Example 164, (RS)-5-Chloro-N-(4-(2-(pyrrolidin-2-yl)ethyl)phenyl)pyrazine-2-carboxamide hydrochloride], for which the Ki amounted to 0.0871 µM at mouse TAAR1 (setting [1]) and 0.0121 µM at rat TAAR1 (setting [2]).
Consider `O=C(Nc1ccc([C@@H]2CNCCO2)cc1)c1cccc(Cl)c1` [Example 262, (R)-3-Chloro-N-(4-(morpholin-2-yl)phenyl)benzamide hydrochloride], for which the Ki at mouse TAAR1 (read-out: Ki (μM) mouse) worked out at 0.0052 µM; at rat TAAR1 (read-out: Ki (μM) rat), 0.0013 µM.
For the compound `CC(C(=O)Nc1ccc(C2CCCNC2)cc1)c1ccc(Cl)cc1` (racemic) [Example 103, (RS)-2-(4-Chloro-phenyl)-N—((RS)-4-piperidin-3-yl-phenyl)-propionamide], the inhibitory constant (Ki) on mouse TAAR1 (setting [1]) came out at 0.705 µM; on rat TAAR1 (setting [2]), 0.0646 µM.
The corresponding values for `O=C(Nc1ccc(C2CCCNC2)cc1)c1ccc(Cl)nc1` (racemic) [Example 74, (RS)-6-Chloro-N-(4-piperidin-3-yl-phenyl)-nicotinamide hydrochloride] are 0.0049 µM and 0.0672 µM.
As to `Cc1cc(C(=O)Nc2ccc([C@@H]3CCCNC3)cc2)ccc1Cl` [Example 226, (S)-4-Chloro-3-methyl-N-(4-(piperidin-3-yl)phenyl)benzamide hydrochloride], the values for the Ki at mouse TAAR1 (read-out: Ki (μM) mouse) and on rat TAAR1 (read-out: Ki (μM) rat) were 0.0555 µM and 0.001 µM, respectively.
Regarding `O=C(Nc1ccc(C2CNCCO2)cc1)c1csc(-c2ncccn2)n1` (racemic) [Example 290, (RS)—N-(4-(Morpholin-2-yl)phenyl)-2-(pyrimidin-2-yl)thiazole-4-carboxamide hydrochloride], the Ki on mouse TAAR1 (setting [1]) was 0.0608 µM; at rat TAAR1 (setting [2]), 0.324 µM.
In the case of `O=C(Nc1ccc(CCC2CCCCN2)cc1)c1ccc(Cl)nc1` (racemic) [Example 173, (RS)-6-Chloro-N-(4-(2-(piperidin-2-yl)ethyl)phenyl)nicotinamide hydrochloride], the Ki at mouse TAAR1 (setting [1]) is 0.824 µM; at rat TAAR1 (setting [2]), 0.0218 µM.

Usually Ki stands for a measure of affinity in units of concentration, obtained from inhibition or displacement.

Source of the values: patent US9452980B2, “Substituted benzamides” (Hoffmann-La Roche Inc., priority 2009, dated 2016).
